Measured values from ChEMBL document CHEMBL1139708, “Sesquiterpene lactones are potent and irreversible inhibitors of the antibacterial target enzyme MurA” (Bioorg Med Chem Lett, 2006).
The source made the active and inactive calls. The calls are words filed in the database; no cut-off is given here.

Key:
[1] = target: UDP-N-acetylglucosamine 1-carboxyvinyltransferase (Escherichia coli K-12, UniProt P0A749); assay: Inhibition of Escherichia coli K12 Mur A in presence of UNAG
[2] = target: UDP-N-acetylglucosamine 1-carboxyvinyltransferase (Pseudomonas aeruginosa (strain ATCC 15692 / PAO1 / 1C / PRS 101 / LMG12228), UniProt Q9HVW7); assay: Inhibition of Pseudomonas aeruginosa PAO1293 MurA in presence of UNAG
Sequence of UDP-N-acetylglucosamine 1-carboxyvinyltransferase (Pseudomonas aeruginosa (strain ATCC 15692 / PAO1 / 1C / PRS 101 / LMG12228), UniProt Q9HVW7) (Q9HVW7 whole entry): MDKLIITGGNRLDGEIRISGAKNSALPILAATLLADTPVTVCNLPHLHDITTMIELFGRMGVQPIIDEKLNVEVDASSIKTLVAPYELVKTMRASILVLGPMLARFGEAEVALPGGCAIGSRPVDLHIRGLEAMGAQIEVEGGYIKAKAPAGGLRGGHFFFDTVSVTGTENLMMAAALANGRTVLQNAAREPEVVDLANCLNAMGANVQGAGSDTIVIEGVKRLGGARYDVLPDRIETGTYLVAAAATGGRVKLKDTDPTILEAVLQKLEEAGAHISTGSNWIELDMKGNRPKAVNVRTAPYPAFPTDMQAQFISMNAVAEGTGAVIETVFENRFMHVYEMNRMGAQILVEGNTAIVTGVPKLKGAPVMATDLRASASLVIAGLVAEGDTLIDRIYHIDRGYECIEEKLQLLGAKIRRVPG

[3] = tested on: UDP-N-acetylglucosamine 1-carboxyvinyltransferase (Escherichia coli K-12), P0A749 [C115D]; assay: Inhibition of Escherichia coli K12 Mur A C115D at 50 uM in presence of UNAG
Sequence of UDP-N-acetylglucosamine 1-carboxyvinyltransferase (Escherichia coli K-12), P0A749 [C115D] (P0A749 whole entry C115D): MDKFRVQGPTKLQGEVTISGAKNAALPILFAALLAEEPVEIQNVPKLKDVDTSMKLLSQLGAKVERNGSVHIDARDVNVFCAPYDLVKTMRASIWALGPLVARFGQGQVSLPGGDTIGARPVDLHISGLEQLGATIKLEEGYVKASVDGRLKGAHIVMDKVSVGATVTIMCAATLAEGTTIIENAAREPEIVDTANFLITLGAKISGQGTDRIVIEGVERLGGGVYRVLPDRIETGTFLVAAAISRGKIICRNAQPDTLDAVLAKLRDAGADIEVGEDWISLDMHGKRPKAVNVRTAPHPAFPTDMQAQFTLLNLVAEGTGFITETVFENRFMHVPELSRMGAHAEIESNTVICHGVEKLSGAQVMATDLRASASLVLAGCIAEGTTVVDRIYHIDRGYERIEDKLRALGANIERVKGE

[4] = Inhibition of MurA at 5 uM; conditions: TDE = time-dependent effect
[5] = Inhibition of MurA at 10 uM; conditions: TDE = time-dependent effect

Sequence of UDP-N-acetylglucosamine 1-carboxyvinyltransferase (Escherichia coli K-12, UniProt P0A749) (P0A749 whole entry): as the sequence (P0A749 whole entry C115D) above, with D115C counted along it

Row | Structure (SMILES) | IC50 [1] [µM] | IC50 [2] [µM] | Activity [3] | Activity [4] | Activity [5]
1 | C=C1C(=O)O[C@@H]2[C@@H]1CC[C@]1(C)CCC=C(C)[C@@H]21 | > 50 | > 50 | inactive | – | –
2 | C=C1C(=O)O[C@@H]2C3O[C@]3(C)CC/C=C(\C)CC[C@@H]12 (some centres undefined) | > 50 | 27.8 | inactive | – | –
3 | C=C1C(=O)O[C@@H]2/C=C(\C)CC/C=C(\C)CC[C@@H]12 (stereo in doubt; 7) | – | – | inactive | – | –
4 | C=C1C(=O)O[C@@H]2/C=C(\C)CC/C=C(\C)CC[C@@H]12 (stereo in doubt; 7) [COSTUNOLIDE] | > 50 | > 50 | – | – | –
5 | C=C1C(=O)O[C@@H]2/C=C(\C)CC/C=C(\C)CC[C@@H]12 (stereo in doubt; 10) | – | – | inactive | – | –
6 | C=C1C(=O)O[C@@H]2/C=C(\C)CC/C=C(\C)CC[C@@H]12 (stereo in doubt; 10) [COSTUNOLIDE] | > 50 | > 50 | – | – | –
7 | C=C1C(=O)O[C@@H]2/C=C(\CO)CC/C=C(\C)C[C@H](OC(=O)C(=C)[C@H](O)CO)[C@@H]12 [CNICIN] | 16.7 | 10.3 | inactive | tde | –
8 | C=C(CO)C(=O)O[C@H]1CC(=C)[C@@H]2C[C@H](O)C(=C)[C@@H]2[C@H]2OC(=O)C(=C)[C@@H]21 [CYNAROPICRIN] | 19.5 | 12.1 | inactive | tde | –
9 | C=C1CC[C@H]2C(=C)CC[C@H]3C(=C)C(=O)O[C@@H]3[C@@H]12 [DEHYDROCOSTUSLACTONE] | > 50 | > 50 | inactive | – | –
10 | C=C1C(=O)O[C@@H]2/C=C(\C)CC/C=C(/C)C[C@@H](OC(=O)/C(=C/CO)CO)[C@@H]12 [EUPATORIOPICRIN] | 32.7 | 19.8 | inactive | – | tde
11 | C[C@@H]1O[C@@H]1P(=O)(O)O [FOSFOMYCIN] | 0.118 | 10.5 | inactive | tde | –
12 | C=C1C(=O)O[C@@H]2C[C@@]3(C)CCC[C@H](C)C3=C[C@H]12 [HELENINE] | > 50 | > 50 | inactive | – | –
